# Results: a melting point compilation (Tetko et al.; mined from patent text by program, amines drawn as free bases though some values may be those of a salt)
row,SMILES,melting point [°C]
1,CCCCCCCCCCCC#Cc1ccccc1C=C(P(=O)(O)O)P(=O)(O)O,141 to 142
2,OC1CCc2c(Cl)cc(Cl)c(I)c21 (stereo not given),95 to 100
3,COc1cc2cc(C3CCCCC3)sc2c(Cl)c1Cl,60
4,OC1CSC(Oc2ccc(-c3ccnc(Cl)c3)nc2)C(O)C1O (stereo not given),179
5,COc1cc2c(cc1Nc1ncc(Cl)c(Nc3cc(C(N)=O)ccc3OC)n1)CCN(CC(=O)N(C)C)CC2,163 to 174
6,O=C(C[C@@H](CCCC1CCCCC1)c1nc(CNC2CCC2)no1)NO,82 to 83.9
7,COc1nc2cc([N+](=O)[O-])c(C)c(C(=O)N3CCCNCC3)c2nc1OC,141 to 143
8,Cc1ccc(=O)n(-c2cccc(C(F)(F)F)c2)c1,95
9,Cc1cc(-c2[nH]c3ccccc3c2C)cc(C)c1O,143 to 144
10,O=C1NC(=Cc2ccccc2Cl)C(=O)C1=NO,176
11,CC(=O)NC1=NN(c2ccc(Cl)cc2)C(C)C1 (stereo not given),167 to 169
12,CC(=O)NC(=O)C(C)SC(C)=O (stereo not given),91 to 93
13,C[C@@H](O)c1nccc(N2CCN(c3nc4cccnc4o3)CC2)n1,153 to 156
14,CCCCCCCCCCCCc1c([N+](=O)[O-])ncn1C,56 to 59
15,CCN(CCCc1c[nH]c2c(F)cc(F)cc12)C1COc2c(C(N)=O)ccc(F)c2C1 (stereo not given),125
16,Cc1cc(Cl)c(N)c(Cl)c1,50 to 52
17,COc1ccc(Nc2ccncc2)cc1,129 to 134
18,CC(C)(C)C(=O)Nc1ccc(Cl)cc1,149 to 150
19,Cc1cc(-c2nc3c(F)c(F)ccc3s2)ccc1N,204 to 205
20,COc1cc(C=CC(=O)c2ccc(O)c(OC)c2)ccc1O,111 to 114
21,Cc1nn(C(N)=O)c2c1C(=O)CC(C)(C)C2,173 to 175

row,SMILES,melting point [°C]
1,CCOc1c(F)cc2[nH]c(=O)c(=O)[nH]c2c1[N+](=O)[O-],293 to 295
2,CCOC(=O)c1sc(OCC)nc1C(F)(F)F,30.5 to 31.5
3,S=C(Cc1ccc(Cl)cc1)N1CCOCC1,175 to 177
4,CCCCCCCCCCCCCCCOCCSCCCO,44 to 47
5,Cc1c(C(=O)NC(C)(C)CO)cccc1[N+](=O)[O-],144 to 145
6,CCn1cc(C(=O)O)c(=O)c2cc(F)c(N3CCN(C)CC3)nc21,228 to 230
7,O=C(O)CCC(=O)c1ccc(Br)s1,141 to 143
8,CC(=O)OC1CSC(Oc2cccc(-c3c(C)noc3C)c2)C(OC(C)=O)C1OC(C)=O (stereo not given),167 to 169
9,COc1ccc2cc3c(c(-c4ccc(C)cc4)c2c1)C(=O)NC3=O,298 to 301
10,COC(=O)C1(C(N)=O)CC1,157
11,Cn1nnnc1-c1cn(C)c2cc(C(F)(F)F)ccc2c1=O,220 to 221
12,N#Cc1ccc2[nH]c3c(ccc4c(C=O)c[nH]c43)c2c1,> 250
13,CC(=NC1CCCCC1)N(C)C=Nc1ccc(C)cc1C,37 to 39
14,c1ccc(-c2cc(OCCN3CCOCC3)[nH]n2)cc1,100
15,COc1cccc(C23CCN(Cc4ccccc4)C(CC(=O)C2)C3)c1 (stereo not given),108 to 109
16,FC(F)(F)c1ccc2nc(-c3ccccc3)oc2n1,127 to 129
17,CC(=Cc1ccc(-c2noc3cc(Cl)ccc23)cc1)[N+](=O)[O-],160 to 162
18,Cc1cc2nncn2nc1-c1ccc(C(N)=S)cc1,268 to 272
19,CC1Cc2cc(O)ccc2C2C(F)CC3(C)C(=O)CCC3C12 (stereo not given),185 to 186
20,CSc1nc(N)nc2c3nc(C)cc(C)c3nn12,306 to 307
21,COCc1c(I)cc(Cl)nc1OC,69 to 72

# Second part, the molecule after the results:
row,melting point [°C],SMILES
1,96 to 96.5,COC(=O)C(CCn1c(C(=O)c2ccccc2)cc(Br)c1Br)C(=O)OC
2,147 to 148,Cc1nc2n(CCN3CCOCC3)c3ccccc3n2c1C(=O)c1ccc(Cl)cc1
3,147 to 149,COc1ccc(-c2c(NS(=O)(=O)c3ccc(C)cc3)ncnc2OCCO)cc1
4,44 to 46,COc1cc(C(C)=O)ccc1OCCCN1CCC(C(O)(c2ccc(F)cc2)c2ccc(F)cc2)C1 (stereo not given)
5,225 to 227,COc1ccc(C(=O)Nc2c(C)c(C)c3oc(C)c(-c4ccc(F)cc4)c3c2C)cc1
6,306,COc1ccccc1-n1c(=O)[nH]c2c(C(N)=O)nc(-c3ccc4nc[nH]c4c3)nc21
7,119 to 121,O=C(c1ccc(Cn2cnc3cnccc32)cc1)N1CCOCC1
8,167 to 170,C=Cc1cc(CNC(=O)Nc2ccc(C(C)(C)C)cc2)cc(F)c1NS(C)(=O)=O
9,189 to 191,COC(=O)c1ncn2c1c(OC)nc1ccccc12
10,158 to 160,Cc1cc2cc(CN3CCCC3)cnc2cc1NC(=O)c1ccc(-c2ccc(F)cc2F)cc1
11,178 to 181,CCOCc1nc2c(N)nc3ccccc3c2n1NCCCNC(C)=O
12,116,CCCCOCCOc1ccc(-c2ccc(N3CCC(CC(=O)OCC)C3)c(C=C(C)C(=O)O)c2)cc1 (stereo not given)
13,155 to 156,CCOc1nc2c(C)sc(C(=O)OC)c2n1Cc1ccc(-c2ccccc2C#N)cc1
14,242 to 244,COc1ccc(-c2cc(CN3C(=O)c4ccccc4C3=O)c(=O)n(CC3CC3)n2)cc1F
15,244,Nc1cc(-c2c[nH]c3ncccc23)c2ccccc2n1
16,62 to 64,Cc1cc(OCc2ccccc2)cc(C)c1CC(=O)OCc1ccccc1
17,161 to 163,O=C(O)Cc1c(Cl)nc(-c2ccccc2)n1Cc1ccccc1
18,225,CC1=C(C#N)C(c2ccccc2[N+](=O)[O-])C(C(=O)O)=C(C)N1 (stereo not given)
19,171 to 173,CCc1nc(-c2ccccc2)c(NC(=O)Nc2ccccc2)s1
20,174 to 176,CCCc1ccc(C(=O)Nc2ccc(C(C)=O)cc2)cc1

row,melting point [°C],SMILES
1,224 to 226,O=C(NCCc1ccccc1)Nc1ccc(CN2C(=O)[C@H]3CCC[C@H]3N(C(=O)CCl)c3ccccc32)cc1 (relative stereo)
2,92 to 93,COC(=O)c1ccc(OCCOc2ccccc2)cc1
3,127 to 129,O=C(NCc1ccon1)c1ccnc(N2CCN(Cc3ccc(F)cc3)C2=O)c1
4,266 to 268,O=C(CN1CCC(Cc2ccc(F)cc2)CC1)Nc1ccc2[nH]c(=S)[nH]c2c1
5,50 to 58,CC(=CC(NC=O)C(=O)OCc1ccccc1)CP(=O)(OC(C)C)OC(C)C (stereo not given)
6,145 to 146,N#CC1(c2ccc(OCc3ccc(F)cc3)c(OC3CCCC3)c2)CCC(=O)CC1
7,138,CCNC(=O)C(=O)[C@H](Cc1ccccc1)NC(=O)[C@H](CC(C)C)NC(=O)OCCOC
8,166 to 169,O=C(NC(=O)c1ccccc1)NC1CCCc2ccccc21 (stereo not given)
9,168 to 172,CS(=O)(=O)c1ccc(C[C@@H](NC(=O)OCc2ccccc2)[C@H](O)C(=O)O)cc1
10,178 to 180,Nc1sc2c(c1C(=O)c1cccc3ccccc13)CCN(Cc1ccccc1)C2
11,88 to 89,COC(=O)Cc1csc2cc(-c3ccccc3)cn12
12,83,Oc1cc2c(cc1C=CCc1ccccc1)OCO2
13,153 to 155,CC(C)c1nc(CC(=O)N[C@H](C(=O)N[C@@H](Cc2ccccc2)C[C@H](O)[C@H](Cc2ccccc2)NC(=O)OCc2cncs2)C(C)C)cs1
14,109 to 110,OCCN(c1ccccc1)c1ccccc1
15,244 to 246,CC(C)(C)C(NC(=O)c1ccc(Cl)cc1)Nc1c(Nc2ccncc2)c(=O)c1=O (stereo not given)
16,> 300,O=C(c1ccccc1)c1c(O)c2c(C(=O)O)cccc2[nH]c1=O
17,215 to 218,Nc1ncc(C#Cc2ccc(Cl)cc2)c(N[C@H]2CC[C@H](O)CC2)n1
18,117,CC(=O)Nc1cc2c(cc1Oc1ccc(F)cc1F)CCC2c1ccccc1 (stereo not given)
19,> 280,N#Cc1cnc2c(-c3ccncc3)c(-c3ccc(F)cc3)nn2c1N
20,102 to 103,CC(C)N(CCCCO)c1cnc(-c2ccccc2)c(-c2ccccc2)n1

row,melting point [°C],SMILES
1,100,CCCCC[C@H]1CC[C@H](c2cnc(-c3ccc(C#N)cc3)nc2)CC1
2,86.5 to 93.5,Cc1cc(S(=O)(=O)c2c[nH]c3ccc(F)cc23)ccc1C1CCN(C)C1 (stereo not given)
3,235 to 237,O=C(NCC12CC3CC(CC(C3)C1)C2)c1c(Cl)ccc2nc(N3CCC(C(=O)O)(c4ccccc4)CC3)ccc12
4,155 to 156,COCCNC(=O)CC1CN=C(c2cc3cc(Oc4ccc(S(C)(=O)=O)nc4)ccc3[nH]2)S1 (stereo not given)
5,116 to 118,Cc1cc(C)c2cccc(OCc3c(Cl)ccc(S(=O)(=O)N4CCC[C@H]4C(=O)NCc4cccc(C(N)=S)c4)c3Cl)c2n1
6,116 to 118,CCc1nc2c(cnn2CC)c(NC2CCOCC2)c1CNC(=O)c1cccc(C(=O)NCc2cc(Cl)cc(-c3cccc(CN4CCN(C)CC4)c3)c2)c1
7,128 to 131,CCCOc1cccc(CCCOc2ccc3c(c2)C=C(C(=O)O)CCS3(=O)=O)c1
8,150 to 151,COC(=O)Nc1nc2c(C(C)C)cc(SC3=C(O)C[C@@](CCc4ccc(O)cc4)(C(C)C)OC3=O)c(C)c2s1
9,78,CCC(O)c1ccc(-c2cccc(COc3ccc(CO)c(CO)c3)c2)c(C)c1 (stereo not given)
10,153 to 154,O=C(CN1C(=O)C(c2ccccc2)c2ccccc21)N1CCOCC1 (stereo not given)
11,89 to 90,COC(=O)c1ccc(C#CC(=O)c2ccc3c(c2)CCCC3(C)C)cc1O
12,189,CN(CCSc1ccc(C=C2SC(=O)NC2=O)cc1)c1nc2ccccc2o1
13,72 to 74,O=C1N(CC2CCCO2)c2ccccc2C12COc1cc(O)ccc12 (stereo not given)
14,> 275,Cc1ccc(-n2c(-c3sc(Nc4ccc(Cl)cc4)nc3-c3ccccc3)nc3ccccc3c2=O)cc1
15,224 to 225,COc1cc(C(=O)O)ccc1CN1CCOc2ccc(NC(=O)CC3CCCC3)cc21
16,207 to 210,O=C(O)C1=Cc2cc(-c3ccc(F)cc3)ccc2OC1C(F)(F)F (stereo not given)
17,200,O=C(NC(=O)c1c(Cl)cccc1Cl)Nc1ccc(C(F)(F)F)cc1
18,79 to 81,Cc1ccc(S(=O)(=O)N2CCCC2C(=O)NC(Cc2ccc(OCC(=O)OCc3ccccc3)cc2)C(=O)O)cc1 (stereo not given)
